According to PubChem BioAssay (NCI):
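Five concentrations, 48 hours, 96-well plates. Abbreviation: GI50, concentration required for 50% inhibition of growth. TGI: concentration producing complete growth inhibition.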

What was measured:
Assay in all cases: NCI-60 cell line screen, 48 h
SF-539 CNS = test system: SF-539 CNS
UO-31 renal = test system: UO-31 renal
OVCAR-8 ovarian = test system: OVCAR-8 ovarian
SN12C renal = test system: SN12C renal
SNB-19 CNS = test system: SNB-19 CNS
MOLT-4 leukemia = test system: MOLT-4 leukemia
HOP-62 NSCLC = test system: HOP-62 NSCLC
EKVX NSCLC = test system: EKVX NSCLC
RXF 393 renal = test system: RXF 393 renal
MDA-MB-231 breast = test system: MDA-MB-231 breast

Compound | TGI (SF-539 CNS) [µM] | TGI (UO-31 renal) [µM] | TGI (OVCAR-8 ovarian) [µM] | TGI (SN12C renal) [µM] | TGI (SNB-19 CNS) [µM] | TGI (MOLT-4 leukemia) [µM] | TGI (HOP-62 NSCLC) [µM] | TGI (EKVX NSCLC) [µM] | TGI (RXF 393 renal) [µM] | GI50 (SF-539 CNS) [µM] | GI50 (UO-31 renal) [µM] | GI50 (OVCAR-8 ovarian) [µM] | GI50 (SN12C renal) [µM] | GI50 (SNB-19 CNS) [µM] | GI50 (MOLT-4 leukemia) [µM] | GI50 (HOP-62 NSCLC) [µM] | GI50 (EKVX NSCLC) [µM] | GI50 (MDA-MB-231 breast) [µM] | TGI (MDA-MB-231 breast) [µM] | GI50 (RXF 393 renal) [µM]
CCOC(=O)C(=Cc1ccc(Oc2ccccc2)cc1)C(=O)OCC | 10.3 | 11.8 | 10.7 | 5.65 | 17.5 | 4.93 | 11.2 | 29.4 | 4.69 |  |  |  |  |  |  |  |  |  |  | 
O=C(CCC(=O)C(C(=O)c1ccccc1)c1ccccc1)Nc1cccc(C(F)(F)F)c1 (configuration not stated) | > 100 | > 100 | > 100 | > 100 | > 100 | > 100 |  | > 100 |  |  |  |  |  |  |  |  |  |  |  | 
O=CC[C@H]1CCc2ccccc2C12CCC(=O)CC2 | > 100 | > 100 | > 100 | > 100 | > 100 | > 100 | > 100 |  |  |  |  |  |  |  |  |  |  |  |  | 
Cc1ccc(S(=O)(=O)OCC23CCC(CC2)C2CC23)cc1 (configuration not stated) |  | > 100 | > 100 | > 100 | > 100 | > 100 | > 100 |  |  |  |  |  |  |  |  |  |  |  |  | 
CCC(=O)c1c(NOC2OC(COC(C)=O)C(OC(C)=O)C(OC(C)=O)C2OC(C)=O)nc(OC)n(C)c1=O (configuration not stated) | > 100 |  | > 100 | > 100 | > 100 | > 100 | > 100 | > 100 | > 100 |  |  |  |  |  |  |  |  |  |  | 
O=[N+]([O-])c1cccc(-c2oc(C=Nc3ccccc3)c([N+](=O)[O-])c2-c2cccc([N+](=O)[O-])c2)c1 | > 100 | > 100 | > 100 |  |  | > 100 | > 100 | > 100 | > 100 |  |  |  |  |  |  |  |  |  |  | 
C1=CC=C2NCCCNC3=CC=CC=CC3=NCCCN=C2C=C1 | > 100 | > 100 | > 100 | > 100 | > 100 | > 100 | > 100 | > 100 |  |  |  |  |  |  |  |  |  |  |  | 
O=C1C2C3C=CC(C2C(=O)N1COP(=O)(O)O)C1C2C(=O)N(COP(=O)(O)O)C(=O)C2C31 (configuration not stated) | > 100 | > 100 | > 100 | > 100 | > 100 | > 100 | > 100 | > 100 | > 100 |  |  |  |  |  |  |  |  |  |  | 
COc1cc(COC(=O)N(CC(=O)O)c2ccccc2)c([N+](=O)[O-])cc1OC | > 100 | > 100 | > 100 | > 100 | > 100 | > 100 | > 100 | > 100 | > 100 |  |  |  |  |  |  |  |  |  |  | 
NCCCNCCCCN(CCCN)/[N+]([O-])=N\O | > 100 | > 100 | > 100 | > 100 | > 100 | > 100 | > 100 | > 100 | > 100 |  |  |  |  |  |  |  |  |  |  | 
CN1CCN(c2ccc3nc(-c4ccc5nc(-c6ccc(OCCC(C)(C)C)cc6)[nH]c5c4)[nH]c3c2)CC1 | 26.1 | 41.8 | 18.6 | 15.4 | 4.09 | 10.7 | 26.8 | 21.4 |  | 11.5 | 21.3 | 4.69 | 4 | 2.15 | 3.12 | 7.1 | 4.67 | 2.85 | 5.83 | 
C=C(Br)N(CC)CC | > 100 | > 100 | > 100 | > 100 | > 100 | > 100 | > 100 | > 100 | > 100 |  |  |  |  |  |  |  |  |  |  | 
O=C(CC1(O)C(=O)Nc2c(Cl)cc(Cl)cc21)c1cccc2ccccc12 (configuration not stated) | 32.4 |  | 32.2 | 34 | 27.9 | 66.9 | 30.6 | 29.7 | 37.1 |  |  |  |  |  |  |  |  |  |  | 
COc1cc(OC)c(C2CC=Cc3c(OC)cc(OC)c(OC)c32)cc1OC (configuration not stated) | > 100 | > 100 | > 100 | > 100 |  | > 100 | > 100 | > 100 | > 100 |  |  |  |  |  |  |  |  |  |  | 
O=C(Cc1nc2ccccc2s1)Nc1cccc(C(F)(F)F)c1 | 33.4 | 27.6 | 38.1 | 29.7 | 32.3 | 25.8 | 32.7 | 38.9 | 32.3 |  |  |  |  |  |  |  |  |  |  | 
COc1ccc(Nc2c3ccccc3nc3ccccc23)cc1 | 14.6 | 5.27 | 16.7 | 13 | 18.3 | 3.39 | 14.4 |  | 12.1 | 2.95 | 1.21 | 1.89 | 2.18 | 3.19 | 0.59 | 1.27 |  | 2.58 | 19.3 | 2.04
CC(=O)OC(CCC1(C)OC1COc1ccc(CCNC(=O)c2ccccc2)cc1)C(C)(C)OC(C)=O (configuration not stated) | > 100 | > 100 | 41.4 | > 100 |  | > 100 | > 100 |  | 43.8 |  |  |  |  |  |  |  |  |  |  | 
S=c1cc(S)sc2c1c(=S)sc1nc3ccccn3c(=S)c12 | > 100 | > 100 | > 100 | > 100 | > 100 | > 100 |  | > 100 | > 100 |  |  |  |  |  |  |  |  |  |  | 
COc1cc(Nc2ccnc(NCCCNc3ccnc4cc(Cl)ccc34)n2)cc(OC)c1 | 3.09 | 2.79 | 5.65 | 7.3 | 8 | 6.39 | 5.12 |  |  | 1.58 | 1.37 | 2.07 | 2 | 2.32 | 2.23 | 1.75 |  | 1.5 | 3.16 | 
CN1c2ccccc2C(C)(C)C12C=Cc1cc(O)ccc1O2 (configuration not stated) | 4.15 | 19.5 | 12.9 | 17.2 | 8.46 | > 100 | 10.6 | 14.5 |  | 1.94 | 4.02 | 3.16 | 3.19 | 2.94 | 4.5 | 3.44 | 3.66 | 3.93 | 16.3 | 
C1CCN(c2nc(=[N+]3CCCCC3)ss2)CC1 | > 100 | > 100 | > 100 | > 100 | > 100 | > 100 | > 100 | > 100 | > 100 |  |  |  |  |  |  |  |  |  |  | 
